# According to US10800791B2, “Triazole ACC inhibitors and uses thereof” (Gilead Apollo, LLC, priority 2015, dated 2020):
# Where two headings read alike, the source gives them in different places.
# Tests used:
# C. parapsilosis = test: Antifungal Activity Assay (broth microtiter MIC), C. parapsilosis; format: cell-based, Candida parapsilosis; conditions: Lodderomyces parapsilosis, ATCC22019, 48 h, ATCC 22019, 3 replicates, MIC recorded at 48 h, read-out: MIC, C. parapsilosis ATCC 22019
# Method: (§1) Compounds of the present invention were evaluated in an Antifungal Activity Assay. An exemplary procedure for the assay, which measures the susceptibility of various Candida species to antifungal compounds, follows. Compounds to be tested (including fluconazole and amphotericin B) were dissolved in DMSO to obtain a solution having a concentration of 1 mg/mL. These stock solutions were sterile filtered using a 0.22 um nylon syringe filter, then diluted in sterile water to achieve a final concentration of 128 μg/mL.
# (§2) All species were grown from frozen stock by directly plating on to freshly prepared Sabouraud Dextrose agar (BD, Difco) and incubated overnight in ambient air at 35° C. for 24 h. A direct suspension was prepared in RPMI 1640+MOPS (Lonza, Biowhittaker) by taking individual colonies from the overnight cultures using sterile swabs soaked in sterile saline. The concentration of the suspension was determined using pre-determined standard curves. These suspensions were then diluted down to 5×10^3 CFU/mL to achieve a final concentration of 2.5×10^3 CFU/mL once added to the microtiter plate as per CLSI guidelines (M27-A3, Vol. 28 No. 14).
# (§3) Broth microtiter MIC challenge plates were prepared following CLSI guidelines (M27-A3, Vol. 28 No. 14). The original CLSI guidelines focused on reading Candida MICs after 48 h of incubation. As reading after only 24 h offers a clear advantage of patient care, QC limits are being established for all drugs at 24 h. That being said there are no known interpretive breakpoints for amphotericin B at 24 h and the current fluconazole interpretive breakpoints are based on a 48 h reading. The MICs for the test compounds were recorded at 48 h. All MIC determinations were achieved by visually comparing the growth found in the antibiotic challenged wells to that of the growth control.
# fungal (fACC2) = fungal (fACC2) (UniProt Q00955); conditions: read-out: fACC2 (in vitro ACC2 Inhibition Assay, IC50), ADP-Glo, 5 nM ACC2, 20 μM ATP, 20 μM acetyl-CoA
# Chain of fungal (fACC2) (Q00955 whole entry): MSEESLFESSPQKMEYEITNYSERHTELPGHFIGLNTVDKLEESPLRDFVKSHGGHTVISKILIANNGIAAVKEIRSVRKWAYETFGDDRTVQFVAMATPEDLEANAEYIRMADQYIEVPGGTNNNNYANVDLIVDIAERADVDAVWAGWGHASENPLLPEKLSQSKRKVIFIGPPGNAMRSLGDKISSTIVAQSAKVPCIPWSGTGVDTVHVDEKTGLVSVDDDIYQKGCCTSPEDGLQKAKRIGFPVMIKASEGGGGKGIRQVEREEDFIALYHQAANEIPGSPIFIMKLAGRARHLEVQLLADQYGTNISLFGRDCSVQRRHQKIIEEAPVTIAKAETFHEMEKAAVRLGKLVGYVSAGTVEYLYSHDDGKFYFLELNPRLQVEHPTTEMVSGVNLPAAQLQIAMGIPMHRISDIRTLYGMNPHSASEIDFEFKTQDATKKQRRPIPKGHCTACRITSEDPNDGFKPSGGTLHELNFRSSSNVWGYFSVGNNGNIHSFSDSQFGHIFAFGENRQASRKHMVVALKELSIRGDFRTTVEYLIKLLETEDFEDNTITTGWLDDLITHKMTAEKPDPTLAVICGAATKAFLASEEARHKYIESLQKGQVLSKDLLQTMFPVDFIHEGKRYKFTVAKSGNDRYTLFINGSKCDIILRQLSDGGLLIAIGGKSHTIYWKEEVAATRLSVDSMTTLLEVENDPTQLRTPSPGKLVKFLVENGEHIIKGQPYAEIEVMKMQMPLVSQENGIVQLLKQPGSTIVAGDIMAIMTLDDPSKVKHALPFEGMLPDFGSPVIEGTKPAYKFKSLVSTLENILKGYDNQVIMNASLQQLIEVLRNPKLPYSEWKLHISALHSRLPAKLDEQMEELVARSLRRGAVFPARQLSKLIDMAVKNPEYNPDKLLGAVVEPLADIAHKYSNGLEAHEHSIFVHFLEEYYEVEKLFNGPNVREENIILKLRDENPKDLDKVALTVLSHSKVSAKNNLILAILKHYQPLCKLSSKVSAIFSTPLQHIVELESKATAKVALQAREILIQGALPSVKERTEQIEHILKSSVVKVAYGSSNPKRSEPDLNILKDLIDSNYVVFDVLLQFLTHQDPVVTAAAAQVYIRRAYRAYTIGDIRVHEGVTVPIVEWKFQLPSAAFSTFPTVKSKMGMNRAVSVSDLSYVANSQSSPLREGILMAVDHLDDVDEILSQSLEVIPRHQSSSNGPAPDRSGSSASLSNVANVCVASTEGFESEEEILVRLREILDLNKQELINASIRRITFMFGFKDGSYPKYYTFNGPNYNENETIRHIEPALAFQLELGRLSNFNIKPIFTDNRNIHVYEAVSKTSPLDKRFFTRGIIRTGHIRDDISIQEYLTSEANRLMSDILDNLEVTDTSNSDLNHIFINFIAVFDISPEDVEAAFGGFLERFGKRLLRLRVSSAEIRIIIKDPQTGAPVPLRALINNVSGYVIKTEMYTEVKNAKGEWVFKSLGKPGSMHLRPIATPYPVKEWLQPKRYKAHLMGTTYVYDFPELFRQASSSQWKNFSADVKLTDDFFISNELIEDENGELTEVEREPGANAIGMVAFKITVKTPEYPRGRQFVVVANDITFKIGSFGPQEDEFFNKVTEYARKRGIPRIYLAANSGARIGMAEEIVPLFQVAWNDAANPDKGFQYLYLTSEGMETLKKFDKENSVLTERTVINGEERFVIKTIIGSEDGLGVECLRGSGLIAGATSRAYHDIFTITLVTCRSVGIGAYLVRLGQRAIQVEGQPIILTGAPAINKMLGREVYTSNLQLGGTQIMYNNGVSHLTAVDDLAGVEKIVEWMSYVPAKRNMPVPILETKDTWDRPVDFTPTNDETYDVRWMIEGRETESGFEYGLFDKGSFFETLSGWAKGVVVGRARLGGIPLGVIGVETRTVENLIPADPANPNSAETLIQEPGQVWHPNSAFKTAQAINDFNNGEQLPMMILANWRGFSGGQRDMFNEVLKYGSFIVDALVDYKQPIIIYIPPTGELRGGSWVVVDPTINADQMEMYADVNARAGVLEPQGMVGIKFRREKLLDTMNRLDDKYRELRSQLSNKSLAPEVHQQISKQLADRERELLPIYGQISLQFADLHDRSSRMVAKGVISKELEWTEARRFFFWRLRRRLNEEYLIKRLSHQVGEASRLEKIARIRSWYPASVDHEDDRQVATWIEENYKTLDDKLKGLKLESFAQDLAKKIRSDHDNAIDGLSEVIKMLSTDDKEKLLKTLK
# human (hACC2) = human (hACC2) (Homo sapiens, UniProt O00763); test: In vitro ACC inhibition assay (ADP-Glo), hACC2; format: biochemical; conditions: 5 nM ACC2, 20 μM ATP, 20 μM acetyl-CoA
# Chain of human (hACC2) (O00763 whole entry): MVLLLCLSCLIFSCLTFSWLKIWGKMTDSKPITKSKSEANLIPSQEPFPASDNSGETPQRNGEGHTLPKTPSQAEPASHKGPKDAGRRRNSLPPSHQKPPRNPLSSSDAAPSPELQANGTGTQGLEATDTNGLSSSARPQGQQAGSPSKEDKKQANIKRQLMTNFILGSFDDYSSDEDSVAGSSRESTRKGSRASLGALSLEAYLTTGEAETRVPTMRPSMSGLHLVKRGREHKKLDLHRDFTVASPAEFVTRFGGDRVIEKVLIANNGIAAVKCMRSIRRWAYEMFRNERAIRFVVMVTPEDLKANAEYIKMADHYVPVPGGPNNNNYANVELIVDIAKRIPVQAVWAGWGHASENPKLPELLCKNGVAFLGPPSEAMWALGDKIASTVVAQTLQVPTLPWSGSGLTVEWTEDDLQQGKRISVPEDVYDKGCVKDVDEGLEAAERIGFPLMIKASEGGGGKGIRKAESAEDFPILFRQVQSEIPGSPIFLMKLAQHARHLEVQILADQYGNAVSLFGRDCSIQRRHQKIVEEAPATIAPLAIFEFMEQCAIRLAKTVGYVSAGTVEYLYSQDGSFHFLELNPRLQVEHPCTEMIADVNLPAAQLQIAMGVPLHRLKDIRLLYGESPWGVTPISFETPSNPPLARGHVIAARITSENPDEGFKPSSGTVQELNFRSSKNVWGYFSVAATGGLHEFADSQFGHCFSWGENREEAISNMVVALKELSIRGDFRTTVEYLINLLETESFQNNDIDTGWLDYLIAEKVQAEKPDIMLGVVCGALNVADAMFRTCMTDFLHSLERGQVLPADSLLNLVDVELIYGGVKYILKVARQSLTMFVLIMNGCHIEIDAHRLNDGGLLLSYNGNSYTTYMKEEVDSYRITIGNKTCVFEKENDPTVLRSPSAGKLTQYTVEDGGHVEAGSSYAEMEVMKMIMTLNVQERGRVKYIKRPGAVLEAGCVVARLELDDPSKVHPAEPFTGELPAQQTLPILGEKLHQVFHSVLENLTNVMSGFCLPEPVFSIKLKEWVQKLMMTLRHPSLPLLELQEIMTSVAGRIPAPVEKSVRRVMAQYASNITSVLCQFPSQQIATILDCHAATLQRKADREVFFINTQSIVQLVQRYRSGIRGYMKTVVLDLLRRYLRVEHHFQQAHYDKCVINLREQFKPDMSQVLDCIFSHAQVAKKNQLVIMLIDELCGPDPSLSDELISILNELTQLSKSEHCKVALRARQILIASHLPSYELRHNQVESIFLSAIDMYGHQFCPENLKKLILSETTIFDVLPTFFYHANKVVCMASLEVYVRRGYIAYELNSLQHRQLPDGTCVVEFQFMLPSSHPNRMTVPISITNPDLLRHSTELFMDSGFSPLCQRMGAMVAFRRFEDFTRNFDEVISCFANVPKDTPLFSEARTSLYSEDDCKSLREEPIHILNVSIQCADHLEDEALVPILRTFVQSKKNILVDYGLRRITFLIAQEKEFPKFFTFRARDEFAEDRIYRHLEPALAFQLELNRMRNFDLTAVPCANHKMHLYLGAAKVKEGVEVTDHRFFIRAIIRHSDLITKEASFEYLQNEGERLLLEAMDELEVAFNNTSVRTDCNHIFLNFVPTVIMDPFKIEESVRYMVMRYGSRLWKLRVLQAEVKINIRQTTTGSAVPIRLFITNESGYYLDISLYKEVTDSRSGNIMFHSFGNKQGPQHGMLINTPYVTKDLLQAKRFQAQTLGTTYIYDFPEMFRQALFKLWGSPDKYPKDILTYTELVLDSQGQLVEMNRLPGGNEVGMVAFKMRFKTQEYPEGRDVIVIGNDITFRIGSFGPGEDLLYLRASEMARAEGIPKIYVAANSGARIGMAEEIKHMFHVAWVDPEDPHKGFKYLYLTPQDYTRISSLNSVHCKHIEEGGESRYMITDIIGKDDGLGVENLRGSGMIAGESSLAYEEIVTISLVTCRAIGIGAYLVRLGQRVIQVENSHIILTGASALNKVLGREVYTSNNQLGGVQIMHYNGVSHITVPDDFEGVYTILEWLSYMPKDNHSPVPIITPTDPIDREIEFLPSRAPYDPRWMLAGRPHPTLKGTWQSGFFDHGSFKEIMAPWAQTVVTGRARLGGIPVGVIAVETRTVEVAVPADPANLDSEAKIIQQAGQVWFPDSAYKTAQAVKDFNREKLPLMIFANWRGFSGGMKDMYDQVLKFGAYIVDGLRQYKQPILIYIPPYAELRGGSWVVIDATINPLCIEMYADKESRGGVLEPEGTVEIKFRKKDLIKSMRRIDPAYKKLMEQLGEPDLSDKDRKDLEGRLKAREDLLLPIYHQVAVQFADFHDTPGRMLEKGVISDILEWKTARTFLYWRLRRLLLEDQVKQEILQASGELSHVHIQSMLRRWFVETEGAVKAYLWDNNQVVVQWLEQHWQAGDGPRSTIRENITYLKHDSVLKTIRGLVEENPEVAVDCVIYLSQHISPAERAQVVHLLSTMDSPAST
# Method: The detailed procedure is as follows. […] 10 μL ADP glo reagent was added. […] 20 μL kinase detection reagent was added.
# C. albicans = test: Antifungal Activity Assay (broth microtiter MIC), C. albicans; format: cell-based, Candida albicans; conditions: Candida albicans, ATCC90028, 48 h, ATCC 90028, 3 replicates, MIC recorded at 48 h, read-out: MIC, C. albicans ATCC 90028
# Method: as §1, §2, §3
# C. krusei = test: Antifungal Activity Assay (broth microtiter MIC), C. krusei; format: cell-based, Candida krusei; conditions: Pichia kudriavzevii, ATCC6258, 48 h, ATCC 6258, 3 replicates, MIC recorded at 48 h, read-out: MIC, C. krusei ATCC 6258
# Method: as §1, §2, §3
SMILES,MIC (C. parapsilosis; Table 3a),MIC (C. parapsilosis; Table 3b (additional results)),IC50 (fungal (fACC2); Table 2a),"IC50 (fungal (fACC2); Table 2b, additional results)",IC50 (human (hACC2); Table 2a),"IC50 (human (hACC2); Table 2b, additional results)",MIC (C. albicans; Table 3a),MIC (C. albicans; Table 3b (additional results)),MIC (C. krusei; Table 3a),MIC (C. krusei; Table 3b (additional results))
Cc1c(-n2nccn2)sc2c1c(=O)n(C(C)(C)C(=O)NC(C)C)c(=O)n2C[C@H](OC1CCOCC1)c1cc(F)ccc1OCCO [Compound I-111],0.25 to 1 µg/mL,0.25 to 1 µg/mL,0.4 to 1 nM,0.3 to 1 nM,1 to 5 nM,1 to 5 nM,0.25 to 1 µg/mL,0.06 to 0.249 µg/mL,0.25 to 1 µg/mL,0.06 to 0.249 µg/mL
Cc1c(-n2nccn2)sc2c1c(=O)n(C(C)(C)C(=O)N1CCCC1)c(=O)n2C[C@H](OC1CCOCC1)c1cc(F)ccc1OCCO [Compound I-112],0.25 to 1 µg/mL,1.01 to 2 µg/mL,0.4 to 1 nM,0.3 to 1 nM,1 to 5 nM,1 to 5 nM,0.25 to 1 µg/mL,0.25 to 1 µg/mL,0.25 to 1 µg/mL,0.25 to 1 µg/mL
COc1ccc(F)cc1[C@H](Cn1c(=O)n(C(C)(C)C(=O)N2CCCC2)c(=O)c2c(C)c(-n3nccn3)sc21)OCC(O)C(F)(F)F (stereo partly drawn) [Compound I-113],1.1 to 2 µg/mL,1.01 to 2 µg/mL,1 to 5 nM,1 to 5 nM,1 to 5 nM,1 to 5 nM,0.25 to 1 µg/mL,> 4.01 µg/mL,0.25 to 1 µg/mL,2.01 to 4 µg/mL
C=CCN(C)C(=O)C(C)(C)n1c(=O)c2c(C)c(-n3nccn3)sc2n(C[C@H](OC(C)C)c2cc(F)ccc2OC)c1=O [Compound I-115],1.1 to 2 µg/mL,> 4.01 µg/mL,1 to 5 nM,1 to 5 nM,5 to 10 nM,5 to 10 nM,2.1 to 4 µg/mL,1.01 to 2 µg/mL,1.1 to 2 µg/mL,1.01 to 2 µg/mL
Cc1c(-n2nccn2)sc2c1c(=O)n(C(C)(C)C(=O)NC(C)C)c(=O)n2C[C@H](OC1CCOCC1)c1cc(F)ccc1OCC#N [Compound I-116],0.25 to 1 µg/mL,0.25 to 1 µg/mL,0.4 to 1 nM,0.3 to 1 nM,5 to 10 nM,5 to 10 nM,0.25 to 1 µg/mL,0.25 to 1 µg/mL,0.25 to 1 µg/mL,0.25 to 1 µg/mL
COc1ccc(F)cc1[C@H](Cn1c(=O)n(C(C)(C)C(=O)N2CC=CC2)c(=O)c2c(C)c(-n3nccn3)sc21)OC[C@H](C)O [Compound I-117],2.1 to 4 µg/mL,2.01 to 4 µg/mL,0.4 to 1 nM,0.3 to 1 nM,5 to 10 nM,5 to 10 nM,2.1 to 4 µg/mL,1.01 to 2 µg/mL,0.25 to 1 µg/mL,> 4.01 µg/mL
COc1ccc(F)cc1[C@H](Cn1c(=O)n(C(C)(C)C(=O)N2CCCC2)c(=O)c2c(C)c(-n3nccn3)sc21)OCCCO [Compound I-118],2.1 to 4 µg/mL,1.01 to 2 µg/mL,0.4 to 1 nM,0.3 to 1 nM,1 to 5 nM,1 to 5 nM,1.1 to 2 µg/mL,1.01 to 2 µg/mL,0.25 to 1 µg/mL,1.01 to 2 µg/mL
COc1ccc(F)cc1[C@H](Cn1c(=O)n(C(C)(C)C(=O)NC(C)C)c(=O)c2c(C)c(-n3nccn3)sc21)OCCCO [Compound I-119],0.25 to 1 µg/mL,0.25 to 1 µg/mL,0.4 to 1 nM,0.3 to 1 nM,1 to 5 nM,1 to 5 nM,0.25 to 1 µg/mL,0.25 to 1 µg/mL,0.06 to 0.24 µg/mL,0.25 to 1 µg/mL
C=CCNC(=O)C(C)(C)n1c(=O)c2c(C)c(-n3nccn3)sc2n(C[C@H](OC(C)C)c2cc(F)ccc2OC)c1=O [Compound I-120],0.25 to 1 µg/mL,2.01 to 4 µg/mL,1 to 5 nM,1 to 5 nM,5 to 10 nM,5 to 10 nM,0.25 to 1 µg/mL,1.01 to 2 µg/mL,0.25 to 1 µg/mL,0.25 to 1 µg/mL
